{"source": "paper PMC3592886", "about": "“Utilization of Quantitative In Vivo Pharmacology Approaches to Assess Combination Effects of Everolimus and Irinotecan in Mouse Xenograft Models of Colorectal Cancer” (PLoS ONE, 2013)", "key": {"[1]": {"tested_on": "HCT8 cells", "test": "Sulforhodamine B (SRB) anti-proliferation assay, HCT8", "format": "cell-based", "conditions": "RAD (20 nM), SN38 (4 nM) or the combination of the two, Figure 2", "procedure": "Cytoxic effects were determined using the sulforhodamine B (SRB) assay. Briefly, 5000 viable cells were plated into 96-well plates and incubated overnight prior to exposure with different concentrations of drugs. Cells were exposed to increasing concentrations of everolimus (0–200 nM), SN38 (0–8 nM), and combinations of the two. Following a 72 hour incubation, media was removed and cells were fixed with cold 10% trichloroacetic acid for 30 minutes at 4° C. Cells were washed with water and stained with 0.4% SRB for 30 minutes at room temperature. Cells were washed again with 1% acetic acid and stain was solubilized with 10 mM tris at room temperature and read at an OD of 565 nm. […] The resulting Combination Index (CI) was used as a quantitative measure of the degree of interaction between different drugs. A CI value equal to 1 denotes additivity; CI greater than 1, antagonism; CI less than 1, synergism."}, "[2]": {"tested_on": "HCT116 tumor xenografts", "set-up": "method as in PMID 19223496, PMID 20124452", "conditions": "everolimus at 10–12 mg/kg, mice bearing HCT116 tumor xenografts; cited from earlier work"}, "[3]": {"tested_on": "HCT116 tumor xenografts", "test": "Therapeutic study and tumor growth modeling, HCT116 tumor xenografts", "format": "in vivo, mice", "procedure": "For tumor bearing studies, cells were harvested and resuspended in a 1∶1 mixture of serum-free RPMI and Matrigel (BD Bioscience). One million cells were injected subcutaneously into each rear flank of mice. Tumor volumes, measured by digital calipers, were calculated by V (mm^3) = length x (width)^2 x 0.5236.\nWhen HT29 and HCT116 tumors reached an average volume of ∼325 mm^3 animals were randomized into four treatment groups (n = 9–10 mice per group): (i) vehicles, (ii) 5 mg/kg everolimus (RAD) by oral gavage (PO) daily, (iii) 10 mg/kg irinotecan (IRI) once weekly by intravenous (iv) tail vein injection, and (iv) a combination of RAD and IRI. Everolimus, diluted in sterile water, and irinotecan, diluted in sterile 0.9% saline, were administered at 4 mL/kg. Animals were treated for 28 days. Tumor volumes and body weights were measured 2–3 times weekly. On day 28 of treatment 3–6 animals per group were sacrificed, approximately 24 hours following everolimus treatment, and tumors harvested for metabolomic analysis.\nData from the in vivo study was modeled to assess the therapeutic benefit of adding everolimus to irinotecan. The model used was similar to a previously published model for assessing combination therapy. Some modifications were made and details of the model can be found in Supplement S1 (section SA.3.) and Supplement S2. All modeling was performed on individual animal tumor volume data and modeled with SAAM II version 2.1. […]\nare presented in Tables 1 and 2 in Supplement B. Individual fits of the model to the data can also be found in Supplement B. The average growth terms for each tumor type were then fixed at the average parameter value and used to determine the single agent effects (kx) of each compound by fitting the following equation: […] where cx(t) is the concentration of drug x with respect to time. Individual tumors were modeled and the average value of kx determined (Supplement B Tables 1 & 2) for each single agent treatment. This value was used to fit the following equation to the combination tumor growth data to determine the degree of interaction between the two drugs.\n, the interaction term, was determined for each individual tumor for each tumor type and the data is presented in Table 2 in the main text and individual fits can be found in Supplement B.\nWe determined that values greater than 1.3 are synergistic, between 1.3 and 0.7 are additive, between 0.7 and 0 are less than additive, and negative values for are antagonistic. These ranges were selected based on the model fits. The CV% for the model fits ranged from 15 to 50 with an average CV% of approximately 30%. Therefore we assume an average variance of 30% making the additive range from 1.3 to 0.7 (1 + 30% and 1- 30%). […]"}, "[4]": {"test": "Human pharmacokinetics of everolimus from the literature", "format": "in vivo", "conditions": "humans at the clinically used doses of 5 to 10 mg per day; 75% plasma protein binding used; from data of ref 25, 26", "description": "For in vivo studies, we established doses of everolimus and irinotecan to administer to mice that would yield exposures at or below clinically achievable levels. Human pharmacokinetic information on everolimus, [26] and irinotecan/SN38 [27]–[30] was gathered from the literature and is presented in Tables 1 and 2 respectively."}, "[5]": {"conditions": "everolimus, humans; cited from earlier work"}, "[6]": {"conditions": "Human, cited from earlier work"}, "[7]": {"test": "Simulation of everolimus plasma concentrations at 5 mg/kg (two-compartment model)", "set-up": "species or system mice", "procedure": "Plasma and tumor pharmacokinetic parameters were calculated by noncompartmental analysis with WinNonlin. Everolimus plasma data was fit to a two-compartment model with first-order absorption and simulations of plasma concentrations at a 5 mg/kg dose of everolimus were performed by SAAM II version 2.1 (The Epsilon Group, Charlottesville, VA/University of Washington).\nEverolimus [nmol/g tissue] […]\nEverolimus plasma (A) and tumor (B) pharmacokinetics were measured in nude mice bearing HT29 xenografts.\n10 (●) mg/kg everolimus daily for 7 days prior to sample collection.\nData represents the average of 3 samples and the lines represent the data fits to a two-compartment model with first-order absorption. The parameter estimates from the fits to the 2.5 and 10 mg/kg data were then used to simulate the steady-state dosing of 5 mg/kg RAD001 (C).\nSimulations were generated based on daily dosing. Additional details of the study can be found in the main text.\nTo simulate data at different concentrations between 2.5 and 10 mg/kg the following assumptions were made; (1) everolimus absorption and its’ elimination from the central compartment is constant across dose levels, and (2) the volume of the central compartment varies linearly between doses. We believe these assumptions are valid since the pharmacokinetics appeared to be linear between 2.5 and 10 mg/kg doses, and the model fits the measured data at 2.5 and 10 mg/kg doses well and agrees with pharmacokinetic parameters estimated by non-compartmental analysis (Table S1). […]"}, "[8]": {"conditions": "10 mg daily oral, steady-state, ref 25"}, "[9]": {"conditions": "everolimus 5 mg/kg dose in mice"}}, "note": "Where two headings read alike, the source gives them in different places. Marks after values point to notes of the source that are not given here."}
{"molecule": "CO[C@H]1C[C@@H]2CC[C@@H](C)[C@@](O)(O2)C(=O)C(=O)N2CCCC[C@H]2C(=O)O[C@H]([C@H](C)C[C@@H]2CC[C@@H](OCCO)[C@H](OC)C2)CC(=O)[C@H](C)/C=C(\\C)[C@@H](O)[C@@H](OC)C(=O)[C@H](C)C[C@H](C)/C=C/C=C/C=C/1C", "note": "[Everolimus, 40-O-(2-hydroxyethyl)-rapamycin]", "values": [{"measurement": "%Growth Inhibition", "setting": "[1]", "result": 59, "unit": "%"}, {"measurement": "tumor growth inhibition, single agent", "setting": "[2]", "result": "45–55%"}, {"measurement": "k2 (SD), single agent effect", "setting": "[3]; HCT116 (KRAS and PIK3CA mutant), RAD", "result": "0.000482 (0.00011) mL/ng*day-1"}, {"measurement": "average tumor growth inhibition, TGI", "setting": "[3]; HCT116 xenografts, 5 mg/kg everolimus PO daily, 10 mg/kg irinotecan iv once weekly, or combination, 28 days", "result": 44, "unit": "%"}, {"measurement": "AUCss,free (steady-state free plasma exposure)", "setting": "[4]", "result": "60 to 178", "unit": "ng·h/mL"}, {"measurement": "plasma protein binding", "setting": "[5]", "result": 75, "unit": "%"}, {"measurement": "AUC0→t", "setting": "[6]; 5 mg daily oral, ref 25", "result": "238 ± 77", "unit": "ng·h/mL"}, {"measurement": "Cmin", "setting": "[6]; 5 mg daily oral, ref 25", "result": "^†5.4 ng/mL"}, {"measurement": "AUC0→t", "setting": "[6]; 5 mg daily oral, ref 26", "result": "543 ± 189", "unit": "ng·h/mL"}, {"measurement": "Cmin", "setting": "[6]; 5 mg daily oral, steady-state, estimated from graph in reference", "result": "∼12–14^bd ng/mL"}, {"measurement": "Cmax", "setting": "[6]; 5 mg daily oral, steady-state", "result": "32±9 ^b ng/mL"}, {"measurement": "AUC0→t", "setting": "[6]; 10 mg daily oral, ref 25", "result": "514 ± 231", "unit": "ng·h/mL"}, {"measurement": "AUC0→t", "setting": "[6]; 10 mg daily oral, ref 26", "result": "711 ± 113", "unit": "ng·h/mL"}, {"measurement": "Cmin", "setting": "[6]; 10 mg daily oral, steady-state, estimated from graph in reference", "result": "∼20^bd ng/mL"}, {"measurement": "Cmax", "setting": "[6]; [8]", "result": "61±17 ^b ng/mL"}, {"measurement": "Cmin", "setting": "[6]; [8]", "result": "13.3 ^b ng/mL"}, {"measurement": "Cmax", "setting": "[6]; 10 mg daily oral, steady-state, ref 26", "result": "66±1.4 ^b ng/mL"}, {"measurement": "AUCss,free", "setting": "[7]; 5 mg/kg in mice, from simulated data", "result": 37, "unit": "ng·h/mL"}, {"measurement": "average free concentration (Css,avg)", "setting": "[7]; [9]", "result": "about 1.5 nM"}, {"measurement": "free plasma concentration, Cmax", "setting": "[7]; [9]", "result": 6, "unit": "nM"}, {"measurement": "free plasma concentration, Cmin", "setting": "[7]; [9]", "result": 0.2, "unit": "nM"}]}
